For nine compounds, TGI results are on record in PubChem BioAssay (NCI).

Test systems include MDA-MB-231 breast; HCT-116 colon; KM12 colon; NCI-H23 lung; U251 CNS; MCF7 breast; 786-0 renal; ACHN renal; HCC-2998 colon; OVCAR-8 ovarian; PC-3 prostate; M14 melanoma; MALME-3M melanoma; SK-MEL-2 melanoma; K-562 leukemia; UACC-62 melanoma; SK-OV-3 ovarian; SF-539 CNS; RXF 393 renal; HS 578T breast.
Assay in all cases: inhibition of tumour cell growth, NCI panel, 48 h

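1) Cells in 96-well plates. 2) Compound, 48 h, 5 concentrations. 3) Linear interpolation between surrounding doses. 4) Unreached endpoint = highest concentration. TGI marks complete inhibition of growth.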

As for `O=S1(=O)OCCOS(=O)(=O)C1S(=O)(=O)c1ccc2ccccc2c1`, the TGI in the assay with MDA-MB-231 breast, in the assay with HCT-116 colon, in the assay on KM12 colon, in the assay on NCI-H23 lung, in the assay on U251 CNS and with MCF7 breast was over 100 µM throughout. The TGI in the assay on 786-0 renal, in the assay on ACHN renal, in the assay on HCC-2998 colon, in the assay on OVCAR-8 ovarian, with PC-3 prostate and in the assay on M14 melanoma was over 100 µM throughout. The TGI in the assay on MALME-3M melanoma, with SK-MEL-2 melanoma and in the assay on K-562 leukemia was over 100 µM each time.
`CCN(CC)CCNc1ccc2nnn3c4ccc(C)cc4c(=O)c1c23`: the TGI in the assay on UACC-62 melanoma amounted to 27.1 µM; in the assay with HCT-116 colon it was 15 µM; with KM12 colon it was 16.9 µM; in the assay with NCI-H23 lung, 24.7 µM; in the assay with U251 CNS it was 24.7 µM; in the assay on 786-0 renal, 18.6 µM. Besides, the TGI in the assay on ACHN renal is 21.3 µM; in the assay on OVCAR-8 ovarian, 20.9 µM; in the assay with SK-OV-3 ovarian, 25.8 µM; in the assay on SF-539 CNS it was 18.7 µM; with M14 melanoma, 26.4 µM; in the assay on MALME-3M melanoma it was 25.7 µM. Further, the TGI with SK-MEL-2 melanoma came out at 27.1 µM; in the assay on K-562 leukemia, 25.9 µM.
As for `CC(C)Oc1c(O)c2c3c(oc(=O)n3C=CC2c2ccccc2)c1OC(C)C` (centres undefined), the TGI was over 100 µM in the assay on MDA-MB-231 breast; over 100 µM in the assay with HCT-116 colon; 89.6 µM in the assay on KM12 colon; 52.2 µM in the assay with NCI-H23 lung; 45.2 µM with U251 CNS; over 100 µM in the assay with MCF7 breast. Further, the TGI is over 100 µM in the assay on 786-0 renal; 35.3 µM in the assay with HCC-2998 colon; over 100 µM in the assay with OVCAR-8 ovarian; over 100 µM in the assay with SK-OV-3 ovarian; 57.1 µM in the assay on PC-3 prostate; 43.1 µM in the assay on SF-539 CNS. The TGI in the assay on M14 melanoma was found to be 41.4 µM; in the assay on SK-MEL-2 melanoma it was 40.1 µM.
Take `Cc1ccc(NCC(=O)N2CC(=O)Nc3ccccc32)c(C)c1`: the TGI with UACC-62 melanoma, in the assay on HCT-116 colon, with KM12 colon, with NCI-H23 lung, with U251 CNS and in the assay on 786-0 renal was over 100 µM in each case. In addition, the TGI with ACHN renal, with HCC-2998 colon, in the assay with OVCAR-8 ovarian, in the assay on SK-OV-3 ovarian, in the assay on SF-539 CNS and in the assay with RXF 393 renal was over 100 µM throughout. Further, the TGI with M14 melanoma, in the assay with MALME-3M melanoma, with SK-MEL-2 melanoma and with K-562 leukemia was over 100 µM throughout.
In the case of `NCCCOc1ccc([N+](=O)[O-])cc1Cl`, the TGI in the assay with UACC-62 melanoma, in the assay on HCT-116 colon, with KM12 colon, with NCI-H23 lung, in the assay on U251 CNS and with 786-0 renal was over 100 µM in each case. Further, the TGI with ACHN renal, in the assay with HCC-2998 colon, in the assay on OVCAR-8 ovarian, with SF-539 CNS, with M14 melanoma and in the assay on MALME-3M melanoma was over 100 µM throughout. The TGI in the assay on SK-MEL-2 melanoma and in the assay with K-562 leukemia was over 100 µM in each case.
On to `Cc1ccc(S(=O)(=O)N2CCC(=O)c3cc(Br)ccc32)cc1`, for which the TGI with MDA-MB-231 breast is over 54.5 µM; in the assay on UACC-62 melanoma, 18.3 µM; in the assay on HCT-116 colon, over 100 µM; in the assay with KM12 colon it was over 26.1 µM; in the assay with NCI-H23 lung, over 93.9 µM; in the assay on U251 CNS, over 35 µM. Besides, the TGI in the assay on MCF7 breast is over 49.1 µM; with 786-0 renal it was over 67.2 µM; in the assay with ACHN renal, over 100 µM; with HCC-2998 colon it was over 54.1 µM; in the assay on OVCAR-8 ovarian it was over 100 µM; in the assay with SK-OV-3 ovarian, 63.2 µM. Also, the TGI in the assay with PC-3 prostate was 75.4 µM; with SF-539 CNS it was 25.3 µM; in the assay on RXF 393 renal, 53.6 µM; in the assay with M14 melanoma, over 67 µM; in the assay with MALME-3M melanoma it was over 100 µM; in the assay on SK-MEL-2 melanoma, 36.3 µM. Further, in the assay on K-562 leukemia, the TGI was over 30.9 µM.
Take `O=c1[nH]nc(-c2ccccc2)n1Nc1ccccc1`: the TGI in the assay with MDA-MB-231 breast, in the assay on UACC-62 melanoma, with HCT-116 colon, with KM12 colon, in the assay on NCI-H23 lung and in the assay with U251 CNS was over 100 µM in each case. In addition, the TGI in the assay on 786-0 renal, in the assay on ACHN renal, in the assay with HCC-2998 colon, in the assay with OVCAR-8 ovarian, in the assay on SK-OV-3 ovarian and with SF-539 CNS was over 100 µM in each case. The TGI in the assay on RXF 393 renal, in the assay with HS 578T breast, in the assay with M14 melanoma, in the assay with MALME-3M melanoma, in the assay with SK-MEL-2 melanoma and with K-562 leukemia was over 100 µM in each case.
Turning to `C/C(N=NS(=O)(=O)c1ccccc1)=C1\C=CC=CN1O`, the TGI with UACC-62 melanoma, with HCT-116 colon, with KM12 colon, with NCI-H23 lung, in the assay on U251 CNS and in the assay with 786-0 renal was over 100 µM in each case. The TGI in the assay on ACHN renal, with HCC-2998 colon, in the assay with OVCAR-8 ovarian, in the assay on SK-OV-3 ovarian, with SF-539 CNS and with M14 melanoma was over 100 µM throughout.
For `Cc1ccc(Cc2n[nH]c(=O)n2Nc2ccccc2)cc1`, the TGI in the assay with MDA-MB-231 breast, with UACC-62 melanoma, in the assay on HCT-116 colon, with KM12 colon, with NCI-H23 lung and in the assay on U251 CNS was over 100 µM in each case. Besides, the TGI with MCF7 breast, in the assay on 786-0 renal, in the assay with ACHN renal, in the assay on HCC-2998 colon, with OVCAR-8 ovarian and with SK-OV-3 ovarian was over 100 µM in each case. Also, the TGI with SF-539 CNS, in the assay on HS 578T breast, in the assay on MALME-3M melanoma, with SK-MEL-2 melanoma and in the assay with K-562 leukemia was over 100 µM throughout.
